Experimental data: patent publication US6362369B1, “Phthalic acid diamide derivatives fluorine-containing aniline compounds as starting material, agricultural and horticultural insecticides, and a method for application of the insecticides” (Nihon Nohyaku Co., Ltd., priority 1997, dated 2002)

What was measured:
Type in all cases: in vivo
[1] = tested on: diamondback moth (Plutella xylostella); assay: Insecticidal effect on diamondback moth (Test Example 1); settings: for Insecticidal effect on diamondback moth (Test Example 1), judged grade: mortality judged according to the criterion shown in Test Example 1; for Insecticidal effect, Test Example 1 / Insecticidal effect (Test Example 1), judged from mortality: diamondback moth; for Insecticidal effect (Test Example 1), judged from mortality: judged by the criterion of Test Example 1
Outline: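 Chinese cabbage seedlings carrying eggs laid by released adult moths were immersed in treatment, air-dried and held at 25° C. Hatched insects were counted six days after immersion, and mortality was calculated and scored against a fixed criterion. Three replicate groups of 10 insects were used.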

[2] = tested on: rice leafroller (Cnaphalocrocis medinalis); assay: Insecticidal effect on rice leafroller (Test Example 3); settings: 500 ppm, 25° C., humidity 70%; for Insecticidal effect on rice leafroller (Test Example 3), judged grade / Insecticidal effect (Test Example 3), judged from mortality: rice lamina dip; for Insecticidal effect on rice leafroller (Test Example 3), judged grade: third-instar larvae; for Insecticidal effect on rice leafroller (Test Example 3), judged grade / Insecticidal effect, Test Example 3: four days after inoculation; for Insecticidal effect, Test Example 3: rice lamina immersed; for Insecticidal effect (Test Example 3), judged from mortality: 4 days after inoculation
Outline: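 Groups of 10 third-instar larvae, in triplicate, are placed on air-dried lamina resting on wet filter paper. Incubation runs four days at 25° C with 70% humidity before survivors and dead are tallied.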

[3] = tested on: common cutworm (Spodoptera Litura); assay: Insecticidal effect on common cutworm (Test Example 2); settings: 500 ppm, 25° C.; for Insecticidal effect on common cutworm (Test Example 2), judged grade / Insecticidal effect (Test Example 2), judged from mortality: cabbage leaf dip; for Insecticidal effect on common cutworm (Test Example 2), judged grade: second-instar larvae; for Insecticidal effect on common cutworm (Test Example 2), judged grade / Insecticidal effect, Test Example 2: eight days after inoculation; for Insecticidal effect, Test Example 2: cabbage leaf immersed; for Insecticidal effect (Test Example 2), judged from mortality: 8 days after inoculation
Outline: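 Mortality was scored 8 days post-inoculation, using three groups of 10 second-instar larvae kept at 25 °C in closed 9 cm dishes on air-dried treated material. The insecticidal effect was graded from calculated mortality by a set criterion.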

[4] = mortality judged by criterion of Test Example 1
[5] = rice leafroller third-instar larvae
[6] = common cutworm second-instar larvae
[7] = judged by the mortality criterion of Test Example 1
[8] = third-instar larvae of rice leafroller
[9] = second-instar larvae of common cutworm

Cc1cc(OC(F)(F)C(F)Cl)ccc1NC(=O)c1c(F)cccc1C(=O)NC(C)C (stereo not drawn) [compound 567]
Insecticidal effect on diamondback moth (Test Example 1), judged grade [1]: A (100)
Insecticidal effect on rice leafroller (Test Example 3), judged grade [2]: D (79-50)
Insecticidal effect on common cutworm (Test Example 2), judged grade [3]: D (79-50)

CC(C)NC(=O)c1c(F)cccc1C(=O)Nc1cccc(Cl)c1Cl [compound 488]
Insecticidal effect on diamondback moth (Test Example 1), judged grade [1]: A (100)
Insecticidal effect on rice leafroller (Test Example 3), judged grade [2]: A (100)
Insecticidal effect on common cutworm (Test Example 2), judged grade [3]: A (100)

CCN(CC)C(=O)c1c(I)cccc1C(=O)Nc1ccc2c(c1)OC(F)(F)O2 [compound 1129]
Insecticidal effect, Test Example 1 [1, 4]: A (100)
Insecticidal effect, Test Example 3 [2, 5]: A (100)
Insecticidal effect, Test Example 2 [3, 6]: A (100)

CC(C)NC(=O)c1c(C(=O)Nc2ccc(OC(F)(F)F)cc2)cccc1[N+](=O)[O-] [compound 618]
Insecticidal effect on diamondback moth (Test Example 1), judged grade [1]: A (100)
Insecticidal effect on rice leafroller (Test Example 3), judged grade [2]: A (100)
Insecticidal effect on common cutworm (Test Example 2), judged grade [3]: A (100)

CC(C)NC(=O)c1cccc(I)c1C(=O)Nc1ccc(OC(F)(F)C(F)OC(F)(F)C(F)(F)C(F)(F)F)cc1 (stereo not drawn) [compound 419]
Insecticidal effect, Test Example 1 [1, 7]: A (100)
Insecticidal effect, Test Example 3 [2, 8]: A (100)
Insecticidal effect, Test Example 2 [3, 9]: A (100)

CCCCCNC(=O)c1c(I)cccc1C(=O)Nc1ccc(C(F)(F)C(F)(F)F)cc1C [compound 947]
Insecticidal effect, Test Example 1 [1, 4]: A (100)
Insecticidal effect, Test Example 3 [2, 5]: A (100)
Insecticidal effect, Test Example 2 [3, 6]: A (100)

CCCNC(=O)c1c(I)cccc1C(=O)Nc1ccc(C(F)(C(F)(F)F)C(F)(F)F)cc1C [compound 1075]
Insecticidal effect, Test Example 1 [1, 4]: A (100)
Insecticidal effect, Test Example 3 [2, 5]: A (100)
Insecticidal effect, Test Example 2 [3, 6]: A (100)

CC(C)NC(=O)c1c(I)cccc1C(=O)Nc1ccc(C(F)(C(F)(F)F)C(F)(F)F)cc1 [compound 351]
Insecticidal effect, Test Example 1 [1, 7]: A (100)
Insecticidal effect, Test Example 3 [2, 8]: A (100)
Insecticidal effect, Test Example 2 [3, 9]: A (100)

Cc1cc(OC(F)(F)F)ccc1NC(=O)c1cccc(C(F)(F)F)c1C(=O)NC(C)(C)C [compound 1230]
Insecticidal effect, Test Example 1 [1, 4]: A (100)
Insecticidal effect, Test Example 3 [2, 5]: A (100)
Insecticidal effect, Test Example 2 [3, 6]: A (100)

Cc1cc(OC(F)(F)Br)ccc1NC(=O)c1cccc([N+](=O)[O-])c1C(=O)NC(C)C [compound 711]
Insecticidal effect on diamondback moth (Test Example 1), judged grade [1]: A (100)
Insecticidal effect on rice leafroller (Test Example 3), judged grade [2]: A (100)
Insecticidal effect on common cutworm (Test Example 2), judged grade [3]: C (89-80)

Cc1cc(OC(F)(F)C(F)Cl)ccc1NC(=O)c1c(I)cccc1C(=O)NC(C)C (stereo not drawn) [compound 455]
Insecticidal effect on diamondback moth (Test Example 1), judged grade [1]: A (100)
Insecticidal effect on rice leafroller (Test Example 3), judged grade [2]: A (100)
Insecticidal effect on common cutworm (Test Example 2), judged grade [3]: B (99-90)

Cc1ccc(Cl)cc1NC(=O)c1cccc([N+](=O)[O-])c1C(N)=O [compound 1]
Insecticidal effect, Test Example 1 [1, 7]: D (79-50)
Insecticidal effect, Test Example 3 [2, 8]: A (100)
Insecticidal effect, Test Example 2 [3, 9]: D (79-50)

CCN(CC)C(=O)c1c(Cl)cccc1C(=O)Nc1ccc(C(F)(F)C(F)(F)F)cc1F [compound 1541]
Insecticidal effect (Test Example 1), judged from mortality [1]: A (100)
Insecticidal effect (Test Example 3), judged from mortality [2, 8]: A (100)
Insecticidal effect (Test Example 2), judged from mortality [3, 9]: A (100)

CCNC(=O)c1c(I)cccc1C(=O)Nc1ccc(C(F)(F)C(F)(F)F)cc1Cl [compound 1503]
Insecticidal effect (Test Example 1), judged from mortality [1]: A (100)
Insecticidal effect (Test Example 3), judged from mortality [2, 8]: A (100)
Insecticidal effect (Test Example 2), judged from mortality [3, 9]: C (89-80)

CC(C)(C)NC(=O)c1c(I)cccc1C(=O)Nc1ccc2c(c1Cl)OC(F)(F)C(F)(F)O2 [compound 1644]
Insecticidal effect (Test Example 1), judged from mortality [1]: A (100)
Insecticidal effect (Test Example 3), judged from mortality [2, 8]: A (100)
Insecticidal effect (Test Example 2), judged from mortality [3, 9]: A (100)

Cc1cc(OC(F)F)c(Cl)cc1NC(=O)c1cccc(I)c1C(=O)NC(C)C [compound 396]
Insecticidal effect, Test Example 1 [1, 7]: A (100)
Insecticidal effect, Test Example 3 [2, 8]: A (100)
Insecticidal effect, Test Example 2 [3, 9]: A (100)

Cc1c(NC(=O)c2cccc([N+](=O)[O-])c2C(=O)NC(C)C)cccc1OC(F)(F)C(F)Cl (stereo not drawn) [compound 713]
Insecticidal effect on diamondback moth (Test Example 1), judged grade [1]: A (100)
Insecticidal effect on rice leafroller (Test Example 3), judged grade [2]: D (79-50)
Insecticidal effect on common cutworm (Test Example 2), judged grade [3]: B (99-90)

Cc1cc(C(F)(F)C(F)(F)F)ccc1NC(=O)c1cccc(I)c1C(=O)N(C)C(C)C [compound 1042]
Insecticidal effect, Test Example 1 [1, 4]: A (100)
Insecticidal effect, Test Example 3 [2, 5]: A (100)
Insecticidal effect, Test Example 2 [3, 6]: A (100)

CC(C)NC(=O)c1c(Cl)cccc1C(=O)Nc1ccc(C(O)(C(F)(F)F)C(F)(F)F)cc1 [compound 980]
Insecticidal effect, Test Example 1 [1, 4]: A (100)
Insecticidal effect, Test Example 3 [2, 5]: A (100)
Insecticidal effect, Test Example 2 [3, 6]: A (100)

CCN(CC)C(=O)c1c(I)cccc1C(=O)Nc1ccc(OC(F)(F)F)cc1 [compound 1534]
Insecticidal effect (Test Example 1), judged from mortality [1]: A (100)
Insecticidal effect (Test Example 3), judged from mortality [2, 8]: A (100)
Insecticidal effect (Test Example 2), judged from mortality [3, 9]: A (100)

CCC(C)NC(=O)c1c(C(=O)Nc2cc(Cl)ccc2C)cccc1[N+](=O)[O-] (stereo not drawn) [compound 838]
Insecticidal effect on diamondback moth (Test Example 1), judged grade [1]: A (100)
Insecticidal effect on rice leafroller (Test Example 3), judged grade [2]: A (100)
Insecticidal effect on common cutworm (Test Example 2), judged grade [3]: C (89-80)

Cc1cc(C(F)(F)C(F)(F)F)ccc1N(C)C(=O)c1cccc(I)c1C(=O)N(C)C [compound 1120]
Insecticidal effect, Test Example 1 [1, 4]: A (100)
Insecticidal effect, Test Example 3 [2, 5]: A (100)
Insecticidal effect, Test Example 2 [3, 6]: A (100)

Cc1cc(OC(F)(F)C(F)F)ccc1NC(=O)c1cccc([N+](=O)[O-])c1C(=O)NC(C)C [compound 712]
Insecticidal effect on diamondback moth (Test Example 1), judged grade [1]: A (100)
Insecticidal effect on rice leafroller (Test Example 3), judged grade [2]: A (100)
Insecticidal effect on common cutworm (Test Example 2), judged grade [3]: A (100)

CC(C)NC(=O)c1c(I)cccc1C(=O)Nc1ccc(Cl)cc1 [compound 345]
Insecticidal effect, Test Example 1 [1, 7]: A (100)
Insecticidal effect, Test Example 3 [2, 8]: A (100)
Insecticidal effect, Test Example 2 [3, 9]: B (99-90)

Cc1cc(Cl)ccc1NC(=O)c1ccc(F)cc1C(=O)NC(C)C [compound 529]
Insecticidal effect on diamondback moth (Test Example 1), judged grade [1]: A (100)
Insecticidal effect on rice leafroller (Test Example 3), judged grade [2]: A (100)
Insecticidal effect on common cutworm (Test Example 2), judged grade [3]: D (79-50)

CC(C)NC(=O)c1ccccc1C(=O)Nc1ccc(OC(F)(F)F)cc1Cl [compound 47]
Insecticidal effect, Test Example 1 [1, 7]: A (100)
Insecticidal effect, Test Example 3 [2, 8]: A (100)
Insecticidal effect, Test Example 2 [3, 9]: D (79-50)

Cc1cc(OC(F)(F)C(F)F)ccc1NC(=O)c1cccc(Cl)c1C(=O)NC(C)C [Compound No. 141, 3-chloro-N^1-[4-(1,1,2,2-tetrafluoroethoxy)-2-methylphenyl]-N^2-isopropylphthalic acid diamide]
Insecticidal effect, Test Example 1 [1, 7]: A (100)
Insecticidal effect, Test Example 3 [2, 8]: A (100)
Insecticidal effect, Test Example 2 [3, 9]: A (100)

Cc1cc(Oc2ncc(C(F)(F)F)cc2Cl)ccc1NC(=O)c1cccc(Cl)c1C(=O)NC(C)C [compound 159]
Insecticidal effect, Test Example 1 [1, 7]: A (100)
Insecticidal effect, Test Example 3 [2, 8]: A (100)
Insecticidal effect, Test Example 2 [3, 9]: A (100)

CCN(CC)C(=O)c1c(I)cccc1C(=O)Nc1ccc2c(c1)OC(F)C(F)(F)O2 (stereo not drawn) [compound 1151]
Insecticidal effect, Test Example 1 [1, 4]: A (100)
Insecticidal effect, Test Example 3 [2, 5]: A (100)
Insecticidal effect, Test Example 2 [3, 6]: A (100)

CC(C)NC(=O)c1c(C(=O)Nc2ccc(I)cc2)cccc1[N+](=O)[O-] [compound 595]
Insecticidal effect on diamondback moth (Test Example 1), judged grade [1]: A (100)
Insecticidal effect on rice leafroller (Test Example 3), judged grade [2]: A (100)
Insecticidal effect on common cutworm (Test Example 2), judged grade [3]: A (100)
